According to patent US20190008957A1, “COMBINATION THERAPIES INCLUDING INHIBITORS OF THE EXTRACELLULAR DOMAIN OF E-CADHERIN” (The Research Foundation for The State of New York, priority 2012, published 2019):

What was measured:
HER1, HER2, IGF-1R = assay: Western blot of receptor phosphorylation in skin and oropharyngeal SCC cell lines; format: cell-based; conditions: PAM212 cells
Procedure: (§3) After brief sonication, lysates were cleared by centrifugation at 4° C. […] After transfer to nitrocellulose membrane and blocking with 1% BSA, samples were probed with primary antibodies. Western blot images were captured using HP Scanjet G4050 and analyzed relative to G3PDH or actin using NIH Scion Image.
(§4) Antibodies against total HER1 and HER 4 and phosphorylated HER1-4, pPI3K, pAkt, pmTOR, p4E-BP1, pRaptor and pp70S6K obtained from Cell Signaling Technologies. Monoclonal antibodies to HER3 and HER4 were obtained from Thermo Scientific. Polyclonal antibody to the extracellular domain of E-cadherin and monoclonal antibody to α-actin were obtained from Santa Cruz Biotechnology. Monoclonal antibody to the extracellular domain of E-cadherin (DECMA-1) and to His Tag were obtained from Sigma and Abcam, respectively. Monoclonal antibody to G3PDH, ubiquitin and rat IgG1 were obtained from Ambion, Zymed and Southern Biotechnology, respectively.

[1] = system: MEK1/2, ERK1/2, PI3K, Akt, mTOR, p70S6K, 4EBP1; assay: Western blot of downstream MAPK-PI3K/Akt/mTOR signaling in SCC cell lines; format: cell-based
Procedure: as §3, §4

[2] = system: MCF-7, SKBR3 and MDA-MB-231 breast cancer cell lines; assay: BrdU proliferation in breast cancer cell lines; format: cell-based, human; conditions: for proliferation: MCF-7 cells, 24 h, equimolar concentrations
Procedure: (§1) For BrdU staining, cells were incubated with 10 μM BrdU for 2 h prior to fixation and processed for immunofluorescence microscopy as previously described (Brouxhon et al., Cancer Res. 67:7654-64, 2007). For BrdU analyses, cells were counted from 6 low-power fields (×100) per section. BrdU incorporation was also analyzed by a cell proliferation ELISA 5-bromo-2′-deoxyuridine (BrdU) (colorimetric) kit (Roche, Stockholm, Sweden), according to the manufacturer's instructions. Migration and invasion of cells were measured using 8.0 μm pore BD BioCoat Control Insert 24-well plates (no. 354578) and Matrigel Invasion Chamber 24-well Plates (no. 354480), respectively (BD Bioscience). Cells were collected, washed, and 2×10^5 cells were plated in 0.4% FBS medium in the top chamber, with 0-20 μg/mL of rhEcad/Fc in the bottom chamber. After 22 h, cells on the top were removed using a cotton swab. Migrated or invaded cells on the lower surface were fixed with methanol, stained with 0.5% crystal violet, examined by bright field microscopy and photographed. Migration or invasion was quantitated by counting migrated or invaded cells in at least ten random high-power fields per insert and expressed as averages. Results are presented as fold change of the number of migrated/invaded cells to the untreated controls in triplicate experiments.

[3] = system: oropharyngeal FADU and skin SCC (PAM212, CC4A, SCC13 and SCC12b) cell lines; assay: Proliferation in oropharyngeal and skin SCC cell lines; format: cell-based
Procedure: as §1

[4] = system: skin (PAM212, CC4A, SCC12b, SCC13) and oropharyngeal (FADU) cells; assay: Transwell migration of SCC cells; format: cell-based
Procedure: as §1

[5] = system: skin (SCC12b, SCC13, PAM212 and CC4A) and the head & neck FADU cell line; assay: Matrigel invasion of SCC cells; format: cell-based
[6] = system: HER2 overexpressing BT474 cells; conditions: cited from earlier work
survivin = conditions: HER2-positive tumors from patients; cited from earlier work
HER1-4 [7] = assay: Western blot of HER phosphorylation in breast cancer cells; format: cell-based, human
From the text: (§2) The association of sEcad with these RTK was also confirmed by in vitro studies. Specifically, in cell culture systems, extracts from sEcad (rhEcad/Fc:His tagged) treated E-cadherin positive MCF-7 and E-cadherin negative SKBR3 and MDA-MB-231 breast cancer cells were immunoprecipitated with HER1-4-specific antibodies and analyzed by western blotting with a His-tagged-specific antibody. Here, we detected HER1-4-sEcad, HER1-2-sEcad and HER1-sEcad interactions in MCF, SKBR3 and MDA-MB-231 breast cancer cells, respectively. […] Because ligand binding to the HER family of receptors induces the formation of homo- and heterodimers, resulting in phosphorylation on specific tyrosine residues within the cytoplasmic domain (Yarden and Siliwkowski, Nature Reviews. 2:127-137, 2001), we next used western blot assays to examine whether sEcad promotes HER phosphorylation and downstream signaling.
Immunoprecipitation assays were carried out by harvesting tissues or cells with immunoprecipitation lysis buffer (20 mM Tris-HCl, pH 7.5; 137 mM NaCl; 100 mM NaF; 10% glycerol (vol/vol); 1% (vol/vol) Nonidet P-40; 1 mM PMSF and protease inhibitor cocktail (Sigma)). After brief sonication, lysates were cleared by centrifugation at 4° C. […] Western blot images were captured using HP Scanjet G4050 and analyzed relative to G3PDH or actin using NIH Scion Image. […]

[8] = system: breast (MCF-7, SKBR3) cells; assay: Transwell migration of breast cancer cells; format: cell-based, human; conditions: MCF-7 cells, 24 h, equimolar concentrations
Procedure: as §1, with “After 22 h, cells on the top were removed using a cotton swab.” left out

[9] = system: MDA-MB-231 and MCF-7 breast cancer cells; assay: Matrigel invasion of breast cancer cells; format: cell-based, human; conditions: MCF-7 cells, 24 h, equimolar concentrations
Procedure: as §1, with “After 22 h, cells on the top were removed using a cotton swab.” left out

HER1-4 [10] = assay: Immunoprecipitation of sEcad with HER receptors in breast cancer cells; format: binding, human
From the text: as §2
Immunoprecipitation assays were carried out by harvesting tissues or cells with immunoprecipitation lysis buffer (20 mM Tris-HCl, pH 7.5; 137 mM NaCl; 100 mM NaF; 10% glycerol (vol/vol); 1% (vol/vol) Nonidet P-40; 1 mM PMSF and protease inhibitor cocktail (Sigma)). After brief sonication, lysates were cleared by centrifugation at 4° C. […] The immunocomplexes were washed three times, boiled in sample buffer (60 mM Tris-Cl, pH 6.8; 2% SDS (vol/vol); 10% glycerol (vol/vol); 5% […] (vol/vol); and 0.01% bromophenol blue (vol/vol), and loaded on SDS-PAGE for protein analysis. Protein extraction in cells was performed on ice using total protein extraction buffer: 20 mM Tris pH 7.5, 137 mM NaCl, 100 mM NaF, 10% glycerol, 1% NP40, 1 mM PMSF and protease inhibitor cocktail (Sigma). For normal and tumor tissues, sEcad was extracted in an aqueous solution (PBS) and not in the protein extraction buffer. Protein concentration was measured using a BCA Protein Assay Kit (Pierce). […] Western blot images were captured using HP Scanjet G4050 and analyzed relative to G3PDH or actin using NIH Scion Image.

[11] = system: ERK1/2, PI3K/Akt, mTOR, p70S6K, 4EBP1; assay: Western blot of downstream MAPK-PI3K/Akt/mTOR signaling in breast cancer cell lines; format: cell-based, human
From the text: We speculated that this effect may be mediated by molecular abnormalities in signaling pathways that promote cell growth downstream of HERs. Specifically, the lipid kinase phosphoinositide-3-kinase (PI3K) and the protein-serine/threonine kinases Akt, and mTOR signaling pathways are important mediators of HER receptor signaling and are causally involved in breast and other malignancies (Schmelzle and Hall, Cell 103:253-262, 2000). […] As the p70S6 kinase and eIF4E binding protein 1 (4EBP1) are among the most well characterized targets of mTOR (Schmelzle and Hall, Cell 103:253-262, 2000), we next studied the phosphorylation of p70S6K at Thr-389 and 4EBP1 at Thr-37 by western blotting.
Immunoprecipitation assays were carried out by harvesting tissues or cells with immunoprecipitation lysis buffer (20 mM Tris-HCl, pH 7.5; 137 mM NaCl; 100 mM NaF; 10% glycerol (vol/vol); 1% (vol/vol) Nonidet P-40; 1 mM PMSF and protease inhibitor cocktail (Sigma)). After brief sonication, lysates were cleared by centrifugation at 4° C. Supernatants were precleared and incubated with EGFR/HER1, HER2, HER3, HER4 or E-cadherin ectodomain-specific antibodies for 4 h and protein A/G plus agarose beads (Santa Cruz, sc-2003) for 2 h at 4° C. The immunocomplexes were washed three times, boiled in sample buffer (60 mM Tris-Cl, pH 6.8; 2% SDS (vol/vol); 10% glycerol (vol/vol); 5% […] (vol/vol); and 0.01% bromophenol blue (vol/vol), and loaded on SDS-PAGE for protein analysis. Protein extraction in cells was performed on ice using total protein extraction buffer: 20 mM Tris pH 7.5, 137 mM NaCl, 100 mM NaF, 10% glycerol, 1% NP40, 1 mM PMSF and protease inhibitor cocktail (Sigma). For normal and tumor tissues, sEcad was extracted in an aqueous solution (PBS) and not in the protein extraction buffer. Protein concentration was measured using a BCA Protein Assay Kit (Pierce). […] Western blot images were captured using HP Scanjet G4050 and analyzed relative to G3PDH or actin using NIH Scion Image. […]

MMP-2 and MMP-9 = assay: MMP-9 ELISA and gelatin zymography of conditioned media; format: cell-based, mouse; conditions: PAM212 cells; inhibitors either alone or in combination
Procedure: Conditioned media from control or sEcad treated cells were concentrated 10-fold using Centricon devices (Millipore; Bedford, Mass.) according to the manufacturer's instructions and applied to SDS-PAGE gels containing gelatin (0.1% w/v). Gels were washed twice in renaturing buffer (Invitrogen) and incubated at 37° C. for 24 h in developing buffer (Invitrogen). Gels were stained with Coomassie blue and destained with methanol:acetic acid (50:10). Zymogram is representative of triplicate experiments.
Conditioned media from human and mouse cells were analyzed for MMP-9 using human and mouse […] Quantikine ELISA Kits and mouse MMP-9 ELISA kit (R&D Systems, Minneapolis, Minn.), according to the manufacturer's specifications, respectively. For measuring mouse MMP-9, serum-free medium was added to cell cultures and cells were exposed to increasing concentrations of sEcad (rmEcad/Fc; R&D Systems) for 24 hours. The culture media were collected and concentrated using Centrifugal Ultra Filters (Millipore, Billerica, Mass.) and MMP-9 levels were measured by ELISA. Each experiment was performed in triplicate.

[12] = PAM212 skin SCC cells, HER inhibitors
[13] = PAM212 cells, PI3K or MEK inhibitor 20 μM

CS(=O)(=O)CCNCc1ccc(-c2ccc3ncnc(Nc4ccc(OCc5cccc(F)c5)c(Cl)c4)c3c2)o1 [Lapatinib]
sEcad-induced HER1 phosphorylation (HER1, HER2, IGF-1R): significantly down-regulated | sEcad-induced HER2 phosphorylation (pHER2) (HER1, HER2, IGF-1R): minimal changes | phospho-IGF-1R levels (HER1, HER2, IGF-1R; in the presence of sEcad, compared to corresponding controls): did not alter | sEcad-induced phosphorylation of 4EBP1 ([1]; PAM212 cells): minimal changes | sEcad-induced phosphorylation of ERK1/2, Akt and p70S6K ([1]; PAM212 cells): significantly down-regulated | sEcad-induced phosphorylation of PI3K ([1]; PAM212 cells): minimal changes | basal and sEcad-induced BrdU incorporation ([2]; breast cancer cells, Canertinib 1 μM, Lapatinib 5 μM, Gefitinib 5 μM): significantly reduced both basal and sEcad-induced BrdU incorporation | sEcad-induced proliferation [3, 12]: effectively inhibited sEcad-induced proliferation, migration and invasion | sEcad-induced migration [4, 12]: effectively inhibited sEcad-induced proliferation, migration and invasion | sEcad-induced invasion [5, 12]: effectively inhibited sEcad-induced proliferation, migration and invasion | apoptosis [6]: induced apoptosis | survivin expression [6]: markedly reduced survivin expression | survivin expression levels in tumors (survivin): marked inhibition of survivin expression levels

rhEGF: Recombinant human EGF (Enzo Life Sciences) (NSDSECPLSHDGYCLHDGVCMYIEALDKYACNCVVGYIGERCQYRDLKWWELR)
HER1 and ERK1/2 phosphorylation (HER1-4 [7]; MCF-7 cells, equimolar concentrations, compared to sEcad alone): more potent effects on HER1 and ERK1/2 phosphorylation | proliferation [2]: significantly increased proliferation, migration and invasion | migration [8]: significantly increased proliferation, migration and invasion | invasion [9]: significantly increased proliferation, migration and invasion

rhEcad/Fc: Recombinant human E-cadherin Fc chimera; extracellular domain residues 155-707 fused to human IgG1 Fc, 6x histidine-tagged
receptors interacting with sEcad (HER1-4 [10]; MCF-7 cells (E-cadherin positive)): HER1-4-sEcad | receptors interacting with sEcad (HER1-4 [10]; MDA-MB-231 cells (E-cadherin negative)): HER1-sEcad | receptors interacting with sEcad (HER1-4 [10]; SKBR3 cells (E-cadherin negative)): HER1-2-sEcad | HER1-4 phosphorylation (HER1-4 [7]; MCF-7 and SKBR3 cells, 26 h after stimulation): notably increased | phosphorylated p70S6K (Thr-389) and 4EBP1 (Thr-37) levels ([11]; MCF-7, SKBR3 cells versus untreated controls): higher | ERK1/2, PI3K/Akt and mTOR activation ([11]; MCF-7 and SKBR3 cells): activation of ERK1/2, PI3K/Akt and mTOR | Akt activation ([11]; MDA-MB-231 TNBC cells): activation | phosphorylated p70S6K (Thr-389) and 4EBP1 (Thr-37) levels ([1]; PAM212, CC4A cells versus untreated controls): higher | BrdU incorporation ([2]; 10 and 20 μg/mL, MCF-7, SKBR3 and MDA-MB-231): significantly increased | proliferation [2]: significantly increased proliferation, migration and invasion | migration [8]: significantly increased proliferation, migration and invasion | invasion [9]: significantly increased proliferation, migration and invasion

COc1cccc(-c2cc(=O)c3ccccc3o2)c1N [PD98059]
Akt phosphorylation by sEcad in the presence of the inhibitor ([1]; PAM212 cells, inhibitor 20 μM): enhanced | ERK1/2 phosphorylation ([1]; PAM212 cells, inhibitor 20 μM): decreased ERK1/2 phosphorylation | mTOR/p70S6K/4EBP1 phosphorylation ([1]; PAM212 cells, inhibitor 20 μM, even in the absence of rmEcad/Fc): increased | sEcad-induced PAM212 proliferation ([3]; PAM212 cells, inhibitor 20 μM): less significant effects | sEcad-induced migration [4, 13]: blocked | sEcad-induced invasion [5, 13]: blocked | sEcad-induced activation of MMP-2 and MMP-9 (MMP-2 and MMP-9): significantly inhibited sEcad-induced activation of MMP-2 and MMP-9
